Columns and labels:
[1] = tested on: secondary cataract formation; experiment: In vivo study in rabbits: secondary cataract weighed two months after phacoemulsification, IOL implantation and doxorubicin injection; design: species or system Albino rabbits; details: 1 µg doxorubicin; 100 µl into the capsular bag behind the IOL; two months postoperatively
Protocol: Albino rabbits were used. In both eyes the crystalline lens was removed by phacoemusification. In both eyes a PMMA IOL was implanted into the capsular bag. In one eye 100 µl of the doxorubicin-Healon slution was injected into the capsular bag behind the IOL. The fellow eye received 100 µ 1 Healon. Two months postoperatively the animals were killed, and the secondary cataracts were removed and weighed to the neariest mg. In one group the doxorubicin was injected dissolved in ta buffer solution instead of Healon. This in order to compare the efficacy when doxorubicin was dissolved in either Healon or buffer. There was a dose dependent inhibitory effect of doxorubicin dissolved in Healon. The doses of 3, 1 and 0.3 µg all gave a significant decrease of the secondary cataract formation. When comparing the dosage 1 µg injected in either Healon of buffer, there was a significant better inibitory effect when doxorubicin was delivered in Healon.
The amount of secondary cataract tissue was typically: […]

[2] = Diffusion experiment in a Sundelöf cell; type: physicochemical; details: 100 µg/ml of Doxorubicin; Sundelöfcell; hyaluronate 10 mg/ml
Protocol: Doxorubicin is slowly released from the hyaluronate-doxorubicine solution. […] The diffusion of Doxorubicine out of the hyaluronate solution is more than three times slower than the diffusion of doxorubicine in water. In a diffusion experiment using 100 µg/ml of Doxorubicin in a Sundelöfcell (Sundelöf L-O, 1982, Anal. Biochem, 127,282-286, Laurent T C, Preston B N Sundelöf L-O Van Damme M P, 1982, Anal. Biochem, 127, 287-292), it took 20 hours for 20 % of doxorubicin in water to diffuse into the upper compartment as compared to 70 hours for the doxorubicine in hyaluronate (10 mg/ml).

[3] = tested on: secondary cataract formation; experiment: In vivo secondary cataract formation (PCO wet mass), 5-FU single dose versus slow release; design: species or system rabbits; details: for inhibition of PCO: PCO measured as wet mass
Protocol: 5 mg of 5-FU was given to rabbits either as a single dose (instant release) or as a slow release formulation prepared according to Example 3 where 5 mg 5-FU was released over 3 or 12 days in vivo. The amount of secondary cataract formation in the rabbits were evaluated according to Lundgren at al (Lundgren B, Jonsson E and Rolfsen W, 1992, Acta Ophthalmol. Suppl 205:25-28). The single saline dose of 5-FU reduced the secondary cataract formation by 50% while the SR-formulation (SR-3 and SR-10) reduced the secondary cataract formation by 70 and 100% respectively.

COc1cccc2c1C(=O)c1c(O)c3c(c(O)c1C2=O)C[C@@](O)(C(=O)CO)C[C@@H]3O[C@H]1C[C@H](N)[C@H](O)[C@H](C)O1 [doxorubicin in buffer, doxorubicin]
amount of secondary cataract tissue [1]: 65 ± 15 mg | time for 20 % of doxorubicin to diffuse into the upper compartment [2]: 20 h

O=c1[nH]cc(F)c(=O)[nH]1 [5-FU, 5-fluoro-uracil]
inhibition of PCO ([3]; 5 mg administered as a single dose): 50% | inhibition of PCO ([3]; 5 mg delivered over 2-3 days): 70% | inhibition of PCO ([3]; 5 mg delivered over 10-12 days): > 90% | reduction of secondary cataract formation ([3]; 5 mg of 5-FU, single saline dose or slow release over 3 or 12 days): 50%
